The values that follow are results of earlier work, collected in US12409146B2, “Solid lipid nanoparticle for intracellular release of active substances and method for production the same” (LEAD BIOTHERAPEUTICS LTD, priority 2017, dated 2025).

≈ marks a conversion by molar mass, not a printed value.

As for `C[C@@H]1C[C@H]2[C@@H]3CCC4=CC(=O)C=C[C@]4(C)[C@@]3(Cl)[C@@H](O)C[C@]2(C)[C@@]1(OC(=O)c1ccco1)C(=O)CCl` [Mometasone furoate], the water solubility is 5.23 µg/mL (≈ 10 µM).
